Measured values published in paper PMC6582358, “Reversible ADP-ribosylation of RNA” (Nucleic Acids Research, 2019).

Key:
Type in all cases: biochemical
PARP10 cat = molecular target: T1, PARP10 cat (Homo sapiens, UniProt Q53GL7); assay: […]-NAD+ ADP-ribosylation of RNA, urea-PAGE autoradiography; settings: acceptor 5'-phosphorylated ssRNA; 50 uM NAD+, 5 mM MgCl2, pH 7.6, 37 °C; labelled compound
T1 construct: catalytic domain (818-1025), GST tag (pGEX-4T1), E. coli Rosetta DE3, gel filtration
T1 sequence (Q53GL7 818-1025): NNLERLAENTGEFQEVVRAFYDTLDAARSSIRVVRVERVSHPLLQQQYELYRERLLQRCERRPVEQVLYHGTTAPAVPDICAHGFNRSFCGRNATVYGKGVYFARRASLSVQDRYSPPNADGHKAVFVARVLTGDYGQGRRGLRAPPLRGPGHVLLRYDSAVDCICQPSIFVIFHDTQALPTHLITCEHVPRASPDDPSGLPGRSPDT

PARP3 FL = molecular target: T2, PARP3 FL (Homo sapiens, UniProt Q9Y6F1); assay: […]-NAD+ ADP-ribosylation of DNA, urea-PAGE autoradiography; settings: acceptor DNA ends; pH 7.6, 37 °C; labelled compound
T2 construct: full length, His tag (pDEST17)
T2 sequence (Q9Y6F1 1-533): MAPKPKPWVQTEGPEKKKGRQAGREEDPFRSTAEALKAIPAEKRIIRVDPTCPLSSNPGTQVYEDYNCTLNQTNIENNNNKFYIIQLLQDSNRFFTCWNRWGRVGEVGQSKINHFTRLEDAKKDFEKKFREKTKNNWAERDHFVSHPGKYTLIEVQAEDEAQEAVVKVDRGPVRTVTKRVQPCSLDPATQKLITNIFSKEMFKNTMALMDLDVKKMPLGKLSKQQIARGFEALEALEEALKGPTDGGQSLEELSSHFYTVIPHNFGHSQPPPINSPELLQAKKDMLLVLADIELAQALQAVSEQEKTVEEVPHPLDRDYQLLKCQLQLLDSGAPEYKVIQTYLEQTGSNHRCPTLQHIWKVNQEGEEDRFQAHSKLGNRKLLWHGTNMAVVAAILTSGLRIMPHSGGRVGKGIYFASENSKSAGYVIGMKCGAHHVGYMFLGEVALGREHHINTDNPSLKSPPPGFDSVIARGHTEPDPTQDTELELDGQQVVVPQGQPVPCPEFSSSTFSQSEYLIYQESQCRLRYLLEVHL

TRPT1 = molecular target: T3, TRPT1 (Homo sapiens, UniProt Q86TN4); assay: […]-NAD+ ADP-ribosylation of RNA, urea-PAGE autoradiography; settings: acceptor 5'-phosphorylated ssRNA; 50 uM NAD+, 5 mM MgCl2, pH 7.6, 37 °C; labelled compound
T3 construct: codon-optimised synthetic gene, His tag, pET28a, E. coli Rosetta DE3, Ni and gel filtration
T3 sequence (Q86TN4 1-253): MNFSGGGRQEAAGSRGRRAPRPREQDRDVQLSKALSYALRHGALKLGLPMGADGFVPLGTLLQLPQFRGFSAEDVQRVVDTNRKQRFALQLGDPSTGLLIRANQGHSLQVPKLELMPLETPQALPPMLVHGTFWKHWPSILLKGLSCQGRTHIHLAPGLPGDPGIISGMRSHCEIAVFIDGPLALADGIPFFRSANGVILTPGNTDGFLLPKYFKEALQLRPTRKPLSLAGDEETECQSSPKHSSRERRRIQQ

PARP10 FL = molecular target: T4, PARP10 FL (Homo sapiens, UniProt Q53GL7); assay: as above; settings: acceptor 5'-phosphorylated ssRNA; 50 uM NAD+, 5 mM MgCl2, pH 7.6, 37 °C; labelled compound
T4 construct: full length, His6-SUMO-TEV vector, E. coli Rosetta DE3, Ni, heparin and gel filtration
T4 sequence (Q53GL7 1-1025): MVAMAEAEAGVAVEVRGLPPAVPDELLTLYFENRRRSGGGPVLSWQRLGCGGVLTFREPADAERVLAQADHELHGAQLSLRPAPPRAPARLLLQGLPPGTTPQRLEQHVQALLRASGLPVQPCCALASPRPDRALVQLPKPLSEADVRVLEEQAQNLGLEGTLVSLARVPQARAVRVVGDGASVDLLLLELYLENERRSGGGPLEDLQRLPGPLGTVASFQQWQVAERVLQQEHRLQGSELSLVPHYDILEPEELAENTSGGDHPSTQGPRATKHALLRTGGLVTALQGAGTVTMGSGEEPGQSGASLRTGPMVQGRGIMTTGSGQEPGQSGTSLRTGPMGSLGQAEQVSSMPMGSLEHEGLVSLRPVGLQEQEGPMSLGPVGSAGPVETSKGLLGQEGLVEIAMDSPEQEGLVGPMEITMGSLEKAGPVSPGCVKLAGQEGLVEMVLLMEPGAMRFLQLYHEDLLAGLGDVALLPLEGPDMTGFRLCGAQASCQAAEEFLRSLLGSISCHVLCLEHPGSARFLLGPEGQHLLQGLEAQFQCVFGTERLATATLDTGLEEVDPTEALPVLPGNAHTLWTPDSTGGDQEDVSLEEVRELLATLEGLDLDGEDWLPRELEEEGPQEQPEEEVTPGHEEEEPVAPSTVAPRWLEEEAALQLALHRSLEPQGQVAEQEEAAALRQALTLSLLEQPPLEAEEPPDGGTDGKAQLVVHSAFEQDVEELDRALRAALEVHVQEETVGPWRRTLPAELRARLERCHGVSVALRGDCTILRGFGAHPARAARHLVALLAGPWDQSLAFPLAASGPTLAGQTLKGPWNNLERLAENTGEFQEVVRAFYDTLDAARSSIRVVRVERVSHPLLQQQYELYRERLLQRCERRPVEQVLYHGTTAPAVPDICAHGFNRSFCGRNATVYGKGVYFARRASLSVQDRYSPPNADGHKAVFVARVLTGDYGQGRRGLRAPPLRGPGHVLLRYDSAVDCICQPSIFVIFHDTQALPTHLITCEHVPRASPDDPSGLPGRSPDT

## NC(=O)c1ccc[n+]([C@@H]2O[C@H](COP(=O)(O)OP(=O)(O)OC[C@H]3O[C@@H](n4cnc5c(N)ncnc54)[C@H](O)[C@@H]3O)[C@@H](O)[C@H]2O)c1 [NAD+]
PARP10 cat
  32P-NAD+ ADP-ribosylation of RNA, urea-PAGE autoradiography: RNA ADP-ribosylation activity of PARP10 is time and NAD^+ concentration dependent
PARP3 FL
  32P-NAD+ ADP-ribosylation of DNA, urea-PAGE autoradiography: PARP3 could only ADP-ribosylate DNA ends
TRPT1
  32P-NAD+ ADP-ribosylation of RNA, urea-PAGE autoradiography: TRPT1 based RNA modification is time and NAD^+ concentration dependent
PARP10 FL
  32P-NAD+ ADP-ribosylation of RNA, urea-PAGE autoradiography: PARP10 full length can also ADP-ribosylate phosphorylated RNA ends
